Results taken from patent publication US12344600B2, “c-Myc mRNA translation modulators and uses thereof in the treatment of cancer” (Anima Biotech Inc., priority 2022, dated 2025).

System: c-Myc
Experiment: c-Myc immunofluorescence assay
Format: cell-based, human
Conditions: A549 cells, 24 hours, anti-c-Myc immunofluorescence
Outline: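 Read-out is imaged c-Myc immunofluorescence, nucleus-segmented, in A549 lung carcinoma cells exposed to compound dose series for 24 h after 48 h growth. Fixation 4% paraformaldehyde, Triton permeabilization, antibody staining at room temperature; EC50 from logistic fit of signal versus concentration.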

For `COc1ccc(-c2noc(N3CCC(C(=O)NCC4(N(C)C)CCCCC4)CC3)n2)cc1` [Compound 249, N-((1-(dimethylamino)cyclohexyl)methyl)-1-(3-(4-methoxyphenyl)-1,2,4-oxadiazol-5-yl)piperidine-4-carboxamide], the “Myc Efficacy (−LogEC50)” value was “+ (+ >3 and <5)”.
In the case of `COc1ccc(-c2noc(N3CCC(C(=O)NCC4CCN(C(C)(C)C)C4)CC3)n2)cc1` (stereo not drawn) [Compound 250, N-((1-(tert-butyl)pyrrolidin-3-yl)methyl)-1-(3-(4-methoxyphenyl)-1,2,4-oxadiazol-5-yl)piperidine-4-carboxamide], the “Myc Efficacy (−LogEC50)” value is reported as “+ (+ >3 and <5)”.
With `CCCN1CCC(NC(=O)C2CCN(c3nc(-c4ccc(OC)cc4)no3)CC2)CC1` [Compound 251, 1-(3-(4-methoxyphenyl)-1,2,4-oxadiazol-5-yl)-N-(1-propylpiperidin-4-yl)piperidine-4-carboxamide] the “Myc Efficacy (−LogEC50)” value was “− (− ≤3)”.
With `COc1ccc(-c2noc(N3CCC(C(=O)NC[C@H]4CCCN4C)CC3)n2)cc1` [Compound 252, (R)-1-(3-(4-methoxyphenyl)-1,2,4-oxadiazol-5-yl)-N-((1-methylpyrrolidin-2-yl)methyl)piperidine-4-carboxamide] the “Myc Efficacy (−LogEC50)” value was “+ (+ >3 and <5)”.
For `COc1ccc(-c2noc(N3CCC(C(=O)NC[C@H]4CCN(C)C4)CC3)n2)cc1` [Compound 253, (R)-1-(3-(4-methoxyphenyl)-1,2,4-oxadiazol-5-yl)-N-((1-methylpyrrolidin-3-yl)methyl)piperidine-4-carboxamide], the “Myc Efficacy (−LogEC50)” value was “+ (+ >3 and <5)”.
In the case of `COc1ccc(-c2noc(N3CCC(C(=O)NC4CCOCC4)CC3)n2)cc1` [Compound 254, 1-(3-(4-methoxyphenyl)-1,2,4-oxadiazol-5-yl)-N-(tetrahydro-2H-pyran-4-yl)piperidine-4-carboxamide], the “Myc Efficacy (−LogEC50)” value is reported as “+ (+ >3 and <5)”.
With `COc1ccc(-c2noc(N3CCC(C(=O)NCC4CCOC4)CC3)n2)cc1` (stereo not drawn) [Compound 255, 1-(3-(4-methoxyphenyl)-1,2,4-oxadiazol-5-yl)-N-((tetrahydrofuran-3-yl)methyl)piperidine-4-carboxamide] the “Myc Efficacy (−LogEC50)” value was “+ (+ >3 and <5)”.
For `COc1ccc(-c2noc(N3CCC(C(=O)N[C@H]4C[C@@H](OC)C4)CC3)n2)cc1` [Compound 256, N-((1s,3s)-3-methoxycyclobutyl)-1-(3-(4-methoxyphenyl)-1,2,4-oxadiazol-5-yl)piperidine-4-carboxamide], the “Myc Efficacy (−LogEC50)” value was “+ (+ >3 and <5)”.
For `COc1ccc(-c2noc(N3CCC(C(=O)NCc4ccccc4N4CCCC4)CC3)n2)cc1` [Compound 257, 1-(3-(4-methoxyphenyl)-1,2,4-oxadiazol-5-yl)-N-(2-(pyrrolidin-1-yl)benzyl)piperidine-4-carboxamide], the “Myc Efficacy (−LogEC50)” value was “+ (+ >3 and <5)”.
In the case of `COc1ccc(-c2noc(N3CCC(C(=O)NC4(C(O)c5ccccc5)CC4)CC3)n2)cc1` (stereo not drawn) [Compound 258, N-(1-(hydroxy(phenyl)methyl)cyclopropyl)-1-(3-(4-methoxyphenyl)-1,2,4-oxadiazol-5-yl)piperidine-4-carboxamide], the “Myc Efficacy (−LogEC50)” value is reported as “+ (+ >3 and <5)”.
`COc1ccc(-c2noc(N3CCC(C(=O)N[C@H]4c5ccccc5C[C@H]4O)CC3)n2)cc1` [Compound 259, N-((1S,2R)-2-hydroxy-2,3-dihydro-1H-inden-1-yl)-1-(3-(4-methoxyphenyl)-1,2,4-oxadiazol-5-yl)piperidine-4-carboxamide] was tested, and the “Myc Efficacy (−LogEC50)” value was “+ (+ >3 and <5)”.
`COc1ccc(-c2noc(N3CCC(C(=O)NCC(C)(O)c4ccccc4)CC3)n2)cc1` (stereo not drawn) [Compound 260, N-(2-hydroxy-2-phenylpropyl)-1-(3-(4-methoxyphenyl)-1,2,4-oxadiazol-5-yl)piperidine-4-carboxamide] was tested, and the “Myc Efficacy (−LogEC50)” value was “+ (+ >3 and <5)”.
In the case of `COc1ccc(-c2noc(N3CCC(C(=O)NC4=NCCS4)CC3)n2)cc1` [Compound 261, N-(4,5-dihydrothiazol-2-yl)-1-(3-(4-methoxyphenyl)-1,2,4-oxadiazol-5-yl)piperidine-4-carboxamide], the “Myc Efficacy (−LogEC50)” value is reported as “+ (+ >3 and <5)”.
`COc1ccc(-c2noc(N3CCC(C(=O)NC(CO)c4cccs4)CC3)n2)cc1` (stereo not drawn) [Compound 262, N-(2-hydroxy-1-(thiophen-2-yl)ethyl)-1-(3-(4-methoxyphenyl)-1,2,4-oxadiazol-5-yl)piperidine-4-carboxamide] was tested, and the “Myc Efficacy (−LogEC50)” value was “+ (+ >3 and <5)”.
In the case of `COc1ccc(-c2noc(N3CCC(C(=O)NC(C)Cc4ccccn4)CC3)n2)cc1` (stereo not drawn) [Compound 263, 1-(3-(4-methoxyphenyl)-1,2,4-oxadiazol-5-yl)-N-(1-(pyridin-2-yl)propan-2-yl)piperidine-4-carboxamide], the “Myc Efficacy (−LogEC50)” value is reported as “− (− ≤3)”.
For `COc1ccc(-c2noc(N3CCC(C(=O)NC4(c5ccccc5)CC4)CC3)n2)cc1` [Compound 264, 1-(3-(4-methoxyphenyl)-1,2,4-oxadiazol-5-yl)-N-(1-phenylcyclopropyl)piperidine-4-carboxamide], the “Myc Efficacy (−LogEC50)” value was “+ (+ >3 and <5)”.
`COc1ccc(-c2noc(N3CCC(C(=O)N[C@@H](CO)c4ccccc4)CC3)n2)cc1` [Compound 265, (R)-N-(2-hydroxy-1-phenylethyl)-1-(3-(4-methoxyphenyl)-1,2,4-oxadiazol-5-yl)piperidine-4-carboxamide] was tested, and the “Myc Efficacy (−LogEC50)” value was “+ (+ >3 and <5)”.
For `COc1ccc(-c2noc(N3CCC(C(=O)N[C@@H](C)c4ccccc4F)CC3)n2)cc1` [Compound 266, (S)-N-(1-(2-fluorophenyl)ethyl)-1-(3-(4-methoxyphenyl)-1,2,4-oxadiazol-5-yl)piperidine-4-carboxamide], the “Myc Efficacy (−LogEC50)” value was “+ (+ >3 and <5)”.
For `Cc1ccc(CN2CC(CNC(=O)C3CCN(c4nc(-c5ccc(C#N)cc5)no4)CC3)CC2=O)cc1` (stereo not drawn) [Compound 267, 1-(3-(4-cyanophenyl)-1,2,4-oxadiazol-5-yl)-N-((1-(4-methylbenzyl)-5-oxopyrrolidin-3-yl)methyl)piperidine-4-carboxamide], the “Myc Efficacy (−LogEC50)” value was “++ (++ ≥5 and <6)”.
With `Cc1ccc(CN2CC(CNC(=O)N3CCN(c4nc(-c5ccc(C#N)cc5)no4)CC3)CC2=O)cc1` (stereo not drawn) [Compound 268, 4-(3-(4-cyanophenyl)-1,2,4-oxadiazol-5-yl)-N-((1-(4-methylbenzyl)-5-oxopyrrolidin-3-yl)methyl)piperazine-1-carboxamide] the “Myc Efficacy (−LogEC50)” value was “++ (++ ≥5 and <6)”.
In the case of `COc1ccc(-c2noc(N3CCC(C(=O)NCCN4CCCC4(C)C)CC3)n2)cc1` [Compound 269, N-(2-(2,2-dimethylpyrrolidin-1-yl)ethyl)-1-(3-(4-methoxyphenyl)-1,2,4-oxadiazol-5-yl)piperidine-4-carboxamide], the “Myc Efficacy (−LogEC50)” value is reported as “+ (+ >3 and <5)”.
With `COc1ccc(-c2noc(N3CCC(C(=O)NCC4(O)CCCCC4)CC3)n2)cc1` [Compound 270, N-((1-hydroxycyclohexyl)methyl)-1-(3-(4-methoxyphenyl)-1,2,4-oxadiazol-5-yl)piperidine-4-carboxamide] the “Myc Efficacy (−LogEC50)” value was “+ (+ >3 and <5)”.
In the case of `COc1ccc(-c2noc(N3CCC(C(=O)NC4CC5(C4)CN(C)C5)CC3)n2)cc1` [Compound 271, 1-(3-(4-methoxyphenyl)-1,2,4-oxadiazol-5-yl)-N-(2-methyl-2-azaspiro[3.3]heptan-6-yl)piperidine-4-carboxamide], the “Myc Efficacy (−LogEC50)” value is reported as “+ (+ >3 and <5)”.
With `COc1ccc(-c2noc(N3CCC(C(=O)NC[C@H]4CC(C)(C)O4)CC3)n2)cc1` [Compound 272, (R)-N-((4,4-dimethyloxetan-2-yl)methyl)-1-(3-(4-methoxyphenyl)-1,2,4-oxadiazol-5-yl)piperidine-4-carboxamide] the “Myc Efficacy (−LogEC50)” value was “+ (+ >3 and <5)”.
With `COc1ccc(-c2noc(N3CCC(C(=O)NCC4(c5ccccc5)CCOCC4)CC3)n2)cc1` [Compound 273, 1-(3-(4-methoxyphenyl)-1,2,4-oxadiazol-5-yl)-N-((4-phenyltetrahydro-2H-pyran-4-yl)methyl)piperidine-4-carboxamide] the “Myc Efficacy (−LogEC50)” value was “− (− ≤3)”.
With `COc1ccc(-c2noc(N3CCC(C(=O)N[C@@H]4CC[C@H](O)C4)CC3)n2)cc1` [Compound 274, N-((1R,3S)-3-hydroxycyclopentyl)-1-(3-(4-methoxyphenyl)-1,2,4-oxadiazol-5-yl)piperidine-4-carboxamide] the “Myc Efficacy (−LogEC50)” value was “+ (+ >3 and <5)”.
In the case of `COc1ccc(-c2noc(N3CCC(C(=O)NC4CCC(F)(F)C4)CC3)n2)cc1` (stereo not drawn) [Compound 275, N-(3,3-difluorocyclopentyl)-1-(3-(4-methoxyphenyl)-1,2,4-oxadiazol-5-yl)piperidine-4-carboxamide], the “Myc Efficacy (−LogEC50)” value is reported as “+ (+ >3 and <5)”.
For `COc1ccc(-c2noc(N3CCC(C(=O)NC[C@H](C)OC)CC3)n2)cc1` [Compound 276, (S)-1-(3-(4-methoxyphenyl)-1,2,4-oxadiazol-5-yl)-N-(2-methoxypropyl)piperidine-4-carboxamide], the “Myc Efficacy (−LogEC50)” value was “+ (+ >3 and <5)”.
With `COc1ccc(-c2noc(N3CCC(C(=O)NC4(Cc5ccccc5)COC4)CC3)n2)cc1` [Compound 277, N-(3-benzyloxetan-3-yl)-1-(3-(4-methoxyphenyl)-1,2,4-oxadiazol-5-yl)piperidine-4-carboxamide] the “Myc Efficacy (−LogEC50)” value was “+ (+ >3 and <5)”.
For `COc1ccc(-c2noc(N3CCC(C(=O)NCC4CCc5ccccc5O4)CC3)n2)cc1` (stereo not drawn) [Compound 278, N-(chroman-2-ylmethyl)-1-(3-(4-methoxyphenyl)-1,2,4-oxadiazol-5-yl)piperidine-4-carboxamide], the “Myc Efficacy (−LogEC50)” value was “+ (+ >3 and <5)”.
In the case of `CC[C@H](C)NC(=O)C1CCN(c2nc(-c3ccc(OC)cc3)no2)CC1` [Compound 279, (S)-N-(sec-butyl)-1-(3-(4-methoxyphenyl)-1,2,4-oxadiazol-5-yl)piperidine-4-carboxamide], the “Myc Efficacy (−LogEC50)” value is reported as “+ (+ >3 and <5)”.
In the case of `COc1ccc(-c2noc(N3CCC(C(=O)NC(c4ccccn4)C4CC4)CC3)n2)cc1` (stereo not drawn) [Compound 280, N-(cyclopropyl(pyridin-2-yl)methyl)-1-(3-(4-methoxyphenyl)-1,2,4-oxadiazol-5-yl)piperidine-4-carboxamide], the “Myc Efficacy (−LogEC50)” value is reported as “+ (+ >3 and <5)”.
With `COc1ccc(-c2noc(N3CCC(C(=O)NCc4ccc5c(c4)CCO5)CC3)n2)cc1` [Compound 281, N-((2,3-dihydrobenzofuran-5-yl)methyl)-1-(3-(4-methoxyphenyl)-1,2,4-oxadiazol-5-yl)piperidine-4-carboxamide] the “Myc Efficacy (−LogEC50)” value was “+ (+ >3 and <5)”.
